{
  "source": "patent US20240390529A1",
  "about": "“DUAL-MODE PROBE FOR DETECTING HYDROGEN SULFIDE AND USE THEREOF” (KYUNGPOOK NATIONAL UNIVERSITY INDUSTRY-ACADEMIC COOPERATION …, priority 2022, published 2024)",
  "key": {"[1]": {"experiment": "In vitro stability in FBS and PBS (radio-TLC demetalization)", "assay_type": "in vitro ADME", "conditions": "37° C.", "method": "^64Cu-ATSM-FITC(6) (10 μL, 37 MBq) was first mixed with FBS (500 μL) or PBS (pH 7.4) at the same volume, and the mixture was incubated at 37° C. Demetalization was monitored using radio-TLC (silica, MeOH:EtOAc=5:95) for up to 12 hours.\nRadioactively labeled ^64Cu-ATSM-FITC(6) (10 μL, 37 MBq) was mixed with 100 μL of FBS or PBS at pH 7.4 in the same amount and incubated at 37° C. using a Thermomixer (500 rpm). In addition, demetalization was measured by radio-TLC (silica, MeOH:EtOAC=5:95) every 4 hours for up to 24 hours."}, "[2]": {"test_system": "brain H2S", "experiment": "LPS neuroinflammation model, PET imaging and γ-counter quantification of brain hemispheres", "assay_type": "in vivo, mice", "conditions": "LPS-treated animals", "method": "Mice were mounted in a stereotaxic frame under isoflurane anesthesia. Sterile saline (control) or LPS (5 mg/mL, Sigma-Aldrich, Saint Louis, MO, USA, catalog number: L2630) was injected unilaterally into the right striatum (anterior-posterior [AP], 0.5 mm, medial) of each mouse by using a 28-gauge Hamilton syringe attached to an automatic microinjector. Injection was carried out at a rate of 0.2 μL/min for 10 minutes. After each injection, the needle was left in place for 5 minutes before being slowly retracted.\nBrain inflammation and control models were prepared 2 days prior to the study on PET imaging (n=5 each). ^64Cu-ATSM-FITC(6) (˜18 MBq, 200 μL of 5% DMSO/PBS) was injected into mice, and the mice were scanned for 10 minutes at 10 minutes after the injection. In addition, Sprague Dawley rats were injected with radiolabeled ^64Cu-ATSM-FITC(6) (˜18 MBq, 200 μL of 5% DMSO/PBS) through the tail vein, and the mice were scanned for 20 minutes at 1 hour after the injection. CT images were generated immediately without the use of additional contrast agents. All PET images were reconstructed by using the Mediso Tera-Tomo 3D iterative algorithm, together with corrections for interaction depth, radionuclide decay, detector normalization, decision dead time, and attenuation."}, "[3]": {"experiment": "Biodistribution in normal BALB/c mice (γ-counter)", "assay_type": "in vivo", "method": "BALB/c mice (male, 9 weeks old) were used to investigate the systemic distribution and clearance rate of ^64Cu-ATSM-FITC (6). ^64Cu-ATSM-FITC (6) with a radioactivity of 0.56 to 0.74 MBq in a saline solution (5% DMSO, 200 μL) was injected into mice through the tail vein under anesthesia. […] Blood was drawn, and organs comprising heart, lung, muscle, fat, bone, spleen, kidney, liver, intestine, and brain were harvested, weighed, and analyzed by using a γ-counter (Wallac Wizard 1480, PerkinElmer, France). Radioactivity was calculated as percentage of injected dose per gram (% ID/g).\nThe distribution of ^64Cu-ATSM-aniline in the body was confirmed by using the same method as described in Experimental Methods 5 and 7 above."}, "[4]": {"test_system": "brain H2S", "experiment": "Animal PET/CT brain imaging, normal and AOAA-treated BALB/c mice", "assay_type": "in vivo", "conditions": "1 hour after injection", "method": "Male BALB/c mice (6 to 9 weeks old) were purchased from Hyochang Bioscience (Daegu, Korea). All mice were housed at 20 to 24° C. together with sufficient water and commercial food under a 12-h day/night cycle. For studies on H2S inhibition, male BALB/c mice were injected intraperitoneally with AOAA ((O-(carboxymethyl) hydroxylamine hemihydrochloride, 10 mg/kg, Sigma-Aldrich (C13408-1G)), 1 hour before administered with ^64Cu-ATSM-FITC(6) into the tail vein.\nAnimal PET/CT images were obtained by using a nanoScan PET/CT scanner (PET 82S, Mediso, Budapest, Hungary). Radiolabeled ^64Cu-ATSM-FITC(6) (˜11 MBq, 200 μL of 5% DMSO/PBS) was injected via tail vein into normal and AOAA-treated BALB/c mice (n=4), and the mice were scanned for 20 minutes at 1 hour after the injection. For PET image-based quantification, regions of interest (ROIs) were manually drawn on the whole brain.\nDetection was performed in 1:3 matching smode with four iterations with six subsets. Analysis of the acquired PET/CT images was performed by using the Mediso InterView Fusion software package. The uptake of ^64Cu-ATSM-FITC(6) in each tissue was normalized to the administered radioactive dose and animal body weight and expressed as the average percent injected dose per gram (% ID/g)."}, "[5]": {"test_system": "brain H2S", "experiment": "PET/CT imaging in Parkinson's disease rat model", "assay_type": "in vivo, SD rats", "conditions": "PET/CT 1 hour after injection of about 1 mCi", "method": "The Parkinson's disease-induced rat model was prepared by taking 7-week-old SD rats and injecting 6-hydroxydopamine (6-OHDA) into the medial forebrain bundle using a Hamilton syringe after drilling a small 1.5 mm hole in the rat's skull near the parietal region at 8 weeks of age.\nIn addition, the uptake pattern was also different between normal rats and the Parkinson's disease rat model (FIG. 23)."}, "[6]": {"experiment": "Decomplexation of radiolabeled probe by H2S (radio-TLC)", "method": "(§1) The ligand ATSM-FITC(4) was radiolabeled with ^64CuCl2 ions in 0.1M ammonium acetate buffer (pH 6.8) at 60° C., with a radiochemical yield of >97% (FIG. 3). Among the various positron-emitting radioisotopes of copper (^60Cu, ^61Cu, ^62Cu, or ^64Cu), Cu-64 has a moderately long half-life (12.7 hours) and a decay mode favorable for PET imaging (17.8% β+ decay). […] The proportion of demetalized ^64CuS in the intact ^64Cu-ATSM-FITC(6) complex may be easily quantified by radio-TLC analysis. The Rf value of ^64Cu-ATSM-FITC(6) was 0.72 on a silica plate with mobile phase (ethyl acetate methanol (95:5)), and ^64CuS remained at the origin of the TLC plate (FIG. 22). As the concentration of H2S increased, the decomplexation percentage of ^64Cu-ATSM-FITC(6) increased proportionally and reached a plateau at 20 μM of H2S (FIG. 15C). […] The lipophilicity of the radiotracer was measured using the general octanol-PBS partitioning method."}, "[7]": {"experiment": "Lipophilicity, octanol-PBS partitioning", "assay_type": "physicochemical", "method": "as §1"}},
  "data": [
    {"smiles": "CNC([S-])=NN=C(C)C(C)=NN=C([S-])Nc1ccc(-c2c3ccc(=O)cc-3oc3cc(O)ccc23)c(C(=O)O)c1.[64Cu+2]", "note": "[^64Cu-ATSM-FITC(6)]", "values": [
      {"measurement": "stability in FBS and PBS", "setting": "[1]", "value": "high stability"},
      {"measurement": "degradation", "setting": "[1]; FBS and PBS, up to 24 hours after incubation", "value": "Less than 10%"},
      {"measurement": "increase of radioactivity at the injection site (right hemisphere) versus left hemisphere", "setting": "[2]", "value": 31, "unit": "%"},
      {"measurement": "total injected activity found in the whole brain", "setting": "[3]", "value": "more than 3.3%"},
      {"measurement": "brain uptake", "setting": "[3]; at 5 minutes, maintained up to 2 hours after injection", "value": "greater than 9 % ID/g"},
      {"measurement": "uptake in the heart, lungs, and kidneys", "setting": "[3]; initially high", "value": "gradually decreased over time"},
      {"measurement": "brain uptake in PET imaging", "setting": "[4]; AOAA-treated mice (10 mg/kg i.p.)", "value": "11.4±2.0", "unit": "% ID/g"},
      {"measurement": "brain uptake in PET imaging", "setting": "[4]; control mice", "value": "15.0±1.8", "unit": "% ID/g"},
      {"measurement": "uptake in brain regions in Parkinson's disease rat model versus normal rats", "setting": "[5]", "value": "significantly lower"},
      {"measurement": "reaction with H2S", "setting": "[6]; forms insoluble ^64CuS precipitate", "value": "reacted immediately"},
      {"measurement": "H2S concentration at which decomplexation percentage reached a plateau", "setting": "[6]; radio-TLC", "value": 20, "unit": "µM"},
      {"measurement": "log D7.4", "setting": "[7]", "value": "1.70±0.05"}
    ]}
  ]
}
